In patent US4542137A, “Alkylaminodesoxy-1.4;3.6-dianhydrohexitol nitrates substituted by purine bases and pharmaceutical compositions” (priority 1980, dated 1985):

Test system: mongrel dogs
Experiment: circulatory pharmacological effectiveness on narcotised dogs, intravenous
Assay type: in vivo, dog
Settings: dog i.v. ISDN/9c 1, 1d 0.5 mg/kg

Compound: CN(CCCn1cnc2c1c(=O)n(C)c(=O)n2C)[C@H]1CO[C@H]2[C@@H]1OC[C@@H]2O[N+](=O)[O-] [Example 9c, 5-[N-Methyl-N-(3-theophyllin-7-ylpropyl)-amino]-5-desoxy-1.4;3.6-dianhydro-L-iditol 2-nitrate]
- APdiast: diastolic aorta pressure (2 min): 58.1 mm.Hg
- APsyst: systolic aorta pressure (2 min): 105.0 mm.Hg
- BFFem: blood flow in the A. femoralis referred to 20 kg body weight (2 min): 34.6 mL/min
- HF: heart frequency (2 min): 163.2
- HLL: heart capacity left, referred to 20 kg body weight (2 min): 0.51 W
- HLR: heart capacity right, referred to 20 kg body weight (2 min): 67.6 mW
- HZV: heart minute volume, referred to 20 kg body weight (2 min): 3.15 L/min
- LVEDP: end diastolic pressure in the left ventricle (2 min): 3.60 mm.Hg
- SV: beat volume, referred to 20 kg body weight (2 min): 20.0 mL
- WAP: pulmonalis resistance, referred to 20 kg body weight (2 min): 0.30 U
- WFem: moralis resistance, referred to 20 kg body weight (2 min): 0.33 KU
- WTP: total peripheral resistance, referred to 20 kg body weight (2 min): 3.07 U
- dp/dt: rate of pressure increase in the left ventricle (2 min): 3045.0 mm.Hg/sec
- APdiast: diastolic aorta pressure (5 min): 79.7 mm.Hg
- APsyst: systolic aorta pressure (5 min): 126.6 mm.Hg
- BFFem: blood flow in the A. femoralis referred to 20 kg body weight (5 min): 39.1 mL/min
- HF: heart frequency (5 min): 129.7
- HLL: heart capacity left, referred to 20 kg body weight (5 min): 0.56 W
- HLR: heart capacity right, referred to 20 kg body weight (5 min): 66.9 mW
- HZV: heart minute volume, referred to 20 kg body weight (5 min): 2.73 L/min
- LVEDP: end diastolic pressure in the left ventricle (5 min): 4.64 mm.Hg
- SV: beat volume, referred to 20 kg body weight (5 min): 21.1 mL
- WAP: pulmonalis resistance, referred to 20 kg body weight (5 min): 0.33 U
- WFem: moralis resistance, referred to 20 kg body weight (5 min): 0.37 KU
- dp/dt: rate of pressure increase in the left ventricle (5 min): 2287.5 mm.Hg/sec
- APdiast: diastolic aorta pressure (7 min): 82.5 mm.Hg
- APsyst: systolic aorta pressure (7 min): 129.4 mm.Hg
- BFFem: blood flow in the A. femoralis referred to 20 kg body weight (7 min): 42.5 mL/min
- HF: heart frequency (7 min): 123.2
- HLL: heart capacity left, referred to 20 kg body weight (7 min): 0.58 W
- HLR: heart capacity right, referred to 20 kg body weight (7 min): 64.2 mW
- HZV: heart minute volume, referred to 20 kg body weight (7 min): 2.75 L/min
- LVEDP: end diastolic pressure in the left ventricle (7 min): 4.92 mm.Hg
- SV: beat volume, referred to 20 kg body weight (7 min): 22.4 mL
- WFem: moralis resistance, referred to 20 kg body weight (7 min): 0.34 KU
- WTP: total peripheral resistance, referred to 20 kg body weight (7 min): 4.77 U
- dp/dt: rate of pressure increase in the left ventricle (7 min): 2325.0 mm.Hg/sec
- APdiast: diastolic aorta pressure (10 min): 81.6 mm.Hg
- APsyst: systolic aorta pressure (10 min): 127.5 mm.Hg
- HF: heart frequency (10 min): 120.5
- HLL: heart capacity left, referred to 20 kg body weight (10 min): 0.57 W
- HLR: heart capacity right, referred to 20 kg body weight (10 min): 68.8 mW
- HZV: heart minute volume, referred to 20 kg body weight (10 min): 2.76 L/min
- LVEDP: end diastolic pressure in the left ventricle (10 min): 4.92 mm.Hg
- SV: beat volume, referred to 20 kg body weight (10 min): 23.0 mL
- WAP: pulmonalis resistance, referred to 20 kg body weight (10 min): 0.32 U
- WFem: moralis resistance, referred to 20 kg body weight (10 min): 0.32 KU
- WTP: total peripheral resistance, referred to 20 kg body weight (10 min): 4.68 U
- APdiast: diastolic aorta pressure (15 min): 81.6 mm.Hg
- APsyst: systolic aorta pressure (15 min): 128.4 mm.Hg
- BFFem: blood flow in the A. femoralis referred to 20 kg body weight (15 min): 43.4 mL/min
- HF: heart frequency (15 min): 115.2
- HLL: heart capacity left, referred to 20 kg body weight (15 min): 0.57 W
- HLR: heart capacity right, referred to 20 kg body weight (15 min): 63.6 mW
- HZV: heart minute volume, referred to 20 kg body weight (15 min): 2.77 L/min
- LVEDP: end diastolic pressure in the left ventricle (15 min): 5.20 mm.Hg
- SV: beat volume, referred to 20 kg body weight (15 min): 24.2 mL
- WAP: pulmonalis resistance, referred to 20 kg body weight (15 min): 0.30 U
- WFem: moralis resistance, referred to 20 kg body weight (15 min): 0.31 KU
- WTP: total peripheral resistance, referred to 20 kg body weight (15 min): 4.65 U
- dp/dt: rate of pressure increase in the left ventricle (15 min): 2250.0 mm.Hg/sec
- APdiast: diastolic aorta pressure (20 min): 82.5 mm.Hg
- APsyst: systolic aorta pressure (20 min): 128.4 mm.Hg
- BFFem: blood flow in the A. femoralis referred to 20 kg body weight (20 min): 44.2 mL/min
- HF: heart frequency (20 min): 114.5
- HLL: heart capacity left, referred to 20 kg body weight (20 min): 0.55 W
- HLR: heart capacity right, referred to 20 kg body weight (20 min): 63.1 mW
- HZV: heart minute volume, referred to 20 kg body weight (20 min): 2.65 L/min
- LVEDP: end diastolic pressure in the left ventricle (20 min): 5.48 mm.Hg
- SV: beat volume, referred to 20 kg body weight (20 min): 23.3 mL
- WAP: pulmonalis resistance, referred to 20 kg body weight (20 min): 0.30 U
- WFem: moralis resistance, referred to 20 kg body weight (20 min): 0.31 KU
- WTP: total peripheral resistance, referred to 20 kg body weight (20 min): 4.90 U
- dp/dt: rate of pressure increase in the left ventricle (20 min): 2221.9 mm.Hg/sec
- APdiast: diastolic aorta pressure (25 min): 83.4 mm.Hg
- APsyst: systolic aorta pressure (25 min): 131.2 mm.Hg
- BFFem: blood flow in the A. femoralis referred to 20 kg body weight (25 min): 41.3 mL/min
- HLL: heart capacity left, referred to 20 kg body weight (25 min): 0.56 W
- HLR: heart capacity right, referred to 20 kg body weight (25 min): 60.5 mW
- HZV: heart minute volume, referred to 20 kg body weight (25 min): 2.65 L/min
- LVEDP: end diastolic pressure in the left ventricle (25 min): 5.62 mm.Hg
- SV: beat volume, referred to 20 kg body weight (25 min): 23.7 mL
- WAP: pulmonalis resistance, referred to 20 kg body weight (25 min): 0.27 U
- WFem: moralis resistance, referred to 20 kg body weight (25 min): 0.33 KU
- WTP: total peripheral resistance, referred to 20 kg body weight (25 min): 5.00 U
- dp/dt: rate of pressure increase in the left ventricle (25 min): 2221.9 mm.Hg/sec
- APdiast: diastolic aorta pressure (30 min): 81.6 mm.Hg
- APsyst: systolic aorta pressure (30 min): 134.1 mm.Hg
- BFFem: blood flow in the A. femoralis referred to 20 kg body weight (30 min): 44.2 mL/min
- HF: heart frequency (30 min): 111.5
- HLL: heart capacity left, referred to 20 kg body weight (30 min): 0.57 W
- HLR: heart capacity right, referred to 20 kg body weight (30 min): 60.5 mW
- HZV: heart minute volume, referred to 20 kg body weight (30 min): 2.68 L/min
- LVEDP: end diastolic pressure in the left ventricle (30 min): 5.62 mm.Hg
- SV: beat volume, referred to 20 kg body weight (30 min): 24.2 mL
- WFem: moralis resistance, referred to 20 kg body weight (30 min): 0.31 KU
- WTP: total peripheral resistance, referred to 20 kg body weight (30 min): 4.87 U
- dp/dt: rate of pressure increase in the left ventricle (30 min): 2221.9 mm.Hg/sec
- APdiast: diastolic aorta pressure (40 min): 86.2 mm.Hg
- APsyst: systolic aorta pressure (40 min): 136.9 mm.Hg
